Laboratory results published in US8962623B2, “Aminopyrazine compounds” (Locus Pharmaceuticals, Inc., priority 2011, dated 2015).

Tests used:
InsR = InsR (Homo sapiens, UniProt P06213); test: Inhibitory activity to InsR (similar procedure); assay type: biochemical; conditions: selectivity ratio
Experimental: (§1) Study of inhibitory activity to other various kinases (e.g. Lck, InsR, Btk) was performed in similar procedure above described.

Btk = Btk (Homo sapiens, UniProt Q06187); test: Inhibitory activity to Btk (similar procedure); assay type: biochemical; conditions: selectivity ratio
Chain of Btk (Q06187 whole entry, species assumed): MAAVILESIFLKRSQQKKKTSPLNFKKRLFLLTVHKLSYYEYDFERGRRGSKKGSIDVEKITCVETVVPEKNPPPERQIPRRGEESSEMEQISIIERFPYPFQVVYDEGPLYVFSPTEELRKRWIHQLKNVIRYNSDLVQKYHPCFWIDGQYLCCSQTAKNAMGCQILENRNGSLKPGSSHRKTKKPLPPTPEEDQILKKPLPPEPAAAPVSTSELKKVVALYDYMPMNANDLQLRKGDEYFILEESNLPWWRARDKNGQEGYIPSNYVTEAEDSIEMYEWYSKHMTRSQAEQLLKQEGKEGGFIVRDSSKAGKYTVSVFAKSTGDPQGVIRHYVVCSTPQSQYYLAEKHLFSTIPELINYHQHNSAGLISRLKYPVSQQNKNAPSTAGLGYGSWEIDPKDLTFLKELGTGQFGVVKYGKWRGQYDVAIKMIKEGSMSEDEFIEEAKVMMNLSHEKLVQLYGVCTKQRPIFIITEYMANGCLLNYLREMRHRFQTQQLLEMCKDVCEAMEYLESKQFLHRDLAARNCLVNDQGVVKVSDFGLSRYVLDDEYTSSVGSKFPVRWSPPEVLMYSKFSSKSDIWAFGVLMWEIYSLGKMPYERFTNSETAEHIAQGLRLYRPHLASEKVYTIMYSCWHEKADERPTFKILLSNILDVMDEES
Experimental: as §1

Itk = target: T1, Itk (Homo sapiens, UniProt Q08881); test: Itk in vitro inhibitory activity in radioassay (33P incorporation into Phospholipase C-γ-1); assay type: biochemical; conditions: 20 μM ATP solution, read-out: IC50 over Itk
T1 construct: purchased Invitrogen
T1 sequence (Q08881 1-620): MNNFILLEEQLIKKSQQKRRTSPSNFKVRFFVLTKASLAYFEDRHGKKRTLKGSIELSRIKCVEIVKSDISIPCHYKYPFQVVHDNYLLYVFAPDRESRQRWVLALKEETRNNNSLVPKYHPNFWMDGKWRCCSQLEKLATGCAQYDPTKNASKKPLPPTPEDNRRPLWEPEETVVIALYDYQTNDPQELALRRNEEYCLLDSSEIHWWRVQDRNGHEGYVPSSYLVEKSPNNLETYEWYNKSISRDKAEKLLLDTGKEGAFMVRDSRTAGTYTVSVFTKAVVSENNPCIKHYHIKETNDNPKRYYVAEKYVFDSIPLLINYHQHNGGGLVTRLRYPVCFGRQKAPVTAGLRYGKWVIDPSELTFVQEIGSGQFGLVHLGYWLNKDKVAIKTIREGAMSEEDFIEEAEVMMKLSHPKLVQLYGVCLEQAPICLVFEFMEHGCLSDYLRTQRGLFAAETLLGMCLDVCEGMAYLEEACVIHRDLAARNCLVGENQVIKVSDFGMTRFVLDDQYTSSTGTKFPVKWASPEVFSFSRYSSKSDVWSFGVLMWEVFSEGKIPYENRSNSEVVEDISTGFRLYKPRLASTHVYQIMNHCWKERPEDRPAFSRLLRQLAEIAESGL
Experimental: The Itk protein kinase activity (Invitrogen) was determined by measuring the incorporation of ^33P from γ-[^33P] ATP into the Phospholipase C-γ-1 substrate (Calbiochem). The dilution series of the compound of the present invention were dissolved in DMSO. The diluted solution (1 μl) of the compounds of the present invention in DMSO was added to a 96-well assay plate. Additionally, Itk kinase solution (39 μL) composed of 3.2 nM Itk (Invitrogen) in reaction buffer (12.5 mM Tris (pH 7.5), 0.01% Triton X-100, 5% glycerol, 10 mM MgCl2, 1 mM EGTA, 5 mM glycerol 2-phosphate, 2 mM DTT and 0.5 mM sodium orthovanadate) was added to the assay plates. The solution was pre-incubated for 20 minutes at 30° C. with shaking. Then ATP/substrate solution (10 μl) composed of […] Phospholipase C-γ-1 (Calbiochem), 1.5% v/v γ-^33P-ATP (PerkinElmer), 20 μM ATP and reaction buffer was added. After incubating at 30° C. with shaking for 70 minutes, the reaction was stopped by adding 10 μl of 0.6 M phosphoric acid to each well. The each reaction from the assay plate was transferred and captured on a phosphocellulose 96-well plate (Millipore MAPHNOB). The reaction mixture was analyzed on the PerkinElmer TopCount NXT HTS 96-well Liquid Scintillation counter.
Inhibition rate (%) of the compound was calculated with the following formula: Inhibition rate(%)={1−(Bx−B100)/(B0−B100)}×100
BX: average counts for the compound
B100: average counts for 100% inhibition control (i.e., no enzyme, no compound)
B0: average counts for 0% inhibition control (i.e., no compound)
The value of 50% inhibition rate (IC50) for the compound was defined as the concentration of the test compound that caused a 50% decrease in the maximum inhibition. IC50 values were calculated from replicate curves by non-linear regression using the sigmoidal dose-response equation in GraphPad Prism software.

Lck = Lck (Homo sapiens, UniProt P06239); test: Inhibitory activity to Lck (similar procedure); assay type: biochemical; conditions: selectivity ratio
Chain of Lck (P06239 whole entry, species assumed): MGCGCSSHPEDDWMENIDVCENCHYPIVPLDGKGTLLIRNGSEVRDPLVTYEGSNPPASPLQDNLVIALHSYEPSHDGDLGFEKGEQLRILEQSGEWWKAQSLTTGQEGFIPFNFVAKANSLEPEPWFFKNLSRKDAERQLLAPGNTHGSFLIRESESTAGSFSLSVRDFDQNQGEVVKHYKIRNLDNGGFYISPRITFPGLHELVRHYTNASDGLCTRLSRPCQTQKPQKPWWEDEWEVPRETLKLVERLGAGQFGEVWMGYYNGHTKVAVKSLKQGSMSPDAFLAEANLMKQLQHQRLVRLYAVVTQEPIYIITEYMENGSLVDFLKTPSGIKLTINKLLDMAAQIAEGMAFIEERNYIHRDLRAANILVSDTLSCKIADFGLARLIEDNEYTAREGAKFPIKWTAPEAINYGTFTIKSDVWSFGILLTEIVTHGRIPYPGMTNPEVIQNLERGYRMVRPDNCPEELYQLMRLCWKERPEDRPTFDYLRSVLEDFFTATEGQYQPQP
Experimental: Study of inhibitory activity to Lck was performed in similar procedure above described.
as §1

[1] = system: IL-2 production in mouse whole blood; test: Mouse whole blood IL-2 assay; assay type: cell-based, BALB/c mouse; conditions: anti-CD3/anti-CD28 stimulation, 18 hours, IL-2 by ELISA
Experimental: The dilution series of the compound of the present invention in DMSO were further diluted by addition of RPMI1640 medium (Invitrogen). The diluted compound solution (6.5 μl) was added to a 96-well plate. BALB/c mouse heparinized peripheral blood was diluted 1:2 in RPMI1640, and added 123.5 μl of the diluted blood to the compound plate. The blood samples were pre-incubated at 37° C. for 30 minutes. Anti-CD3 and anti-CD28 antibody mixture (6 μl; 20 μg/mL each) was spotted into a 96 well assay plates. Pre-treated blood samples (114 μl) were added to each well and the plate was incubated for 18 hours at 37° C. in 5% CO2. After the incubation, supernatants were collected by centrifugation at 300×g for 10 min. IL-2 concentration was determined by ELISA method. The inhibition rate (%) of the compound was calculated with the following formula: Inhibition rate(%)={1−(Cx−C100)/(C0−C100)}×100
CX: IL-2 concentration for the compound
C100: IL-2 concentration for 100% inhibition control (i.e., no stimulation, no compound)
C0: IL-2 concentration for 0% inhibition control (i.e., no compound)
The value of 50% inhibition rate (IC50) for the compound was determined from inhibition curve based on inhibition rate at each concentration of the compound of the present invention.

Chain of InsR (P06213 28-1382, species assumed): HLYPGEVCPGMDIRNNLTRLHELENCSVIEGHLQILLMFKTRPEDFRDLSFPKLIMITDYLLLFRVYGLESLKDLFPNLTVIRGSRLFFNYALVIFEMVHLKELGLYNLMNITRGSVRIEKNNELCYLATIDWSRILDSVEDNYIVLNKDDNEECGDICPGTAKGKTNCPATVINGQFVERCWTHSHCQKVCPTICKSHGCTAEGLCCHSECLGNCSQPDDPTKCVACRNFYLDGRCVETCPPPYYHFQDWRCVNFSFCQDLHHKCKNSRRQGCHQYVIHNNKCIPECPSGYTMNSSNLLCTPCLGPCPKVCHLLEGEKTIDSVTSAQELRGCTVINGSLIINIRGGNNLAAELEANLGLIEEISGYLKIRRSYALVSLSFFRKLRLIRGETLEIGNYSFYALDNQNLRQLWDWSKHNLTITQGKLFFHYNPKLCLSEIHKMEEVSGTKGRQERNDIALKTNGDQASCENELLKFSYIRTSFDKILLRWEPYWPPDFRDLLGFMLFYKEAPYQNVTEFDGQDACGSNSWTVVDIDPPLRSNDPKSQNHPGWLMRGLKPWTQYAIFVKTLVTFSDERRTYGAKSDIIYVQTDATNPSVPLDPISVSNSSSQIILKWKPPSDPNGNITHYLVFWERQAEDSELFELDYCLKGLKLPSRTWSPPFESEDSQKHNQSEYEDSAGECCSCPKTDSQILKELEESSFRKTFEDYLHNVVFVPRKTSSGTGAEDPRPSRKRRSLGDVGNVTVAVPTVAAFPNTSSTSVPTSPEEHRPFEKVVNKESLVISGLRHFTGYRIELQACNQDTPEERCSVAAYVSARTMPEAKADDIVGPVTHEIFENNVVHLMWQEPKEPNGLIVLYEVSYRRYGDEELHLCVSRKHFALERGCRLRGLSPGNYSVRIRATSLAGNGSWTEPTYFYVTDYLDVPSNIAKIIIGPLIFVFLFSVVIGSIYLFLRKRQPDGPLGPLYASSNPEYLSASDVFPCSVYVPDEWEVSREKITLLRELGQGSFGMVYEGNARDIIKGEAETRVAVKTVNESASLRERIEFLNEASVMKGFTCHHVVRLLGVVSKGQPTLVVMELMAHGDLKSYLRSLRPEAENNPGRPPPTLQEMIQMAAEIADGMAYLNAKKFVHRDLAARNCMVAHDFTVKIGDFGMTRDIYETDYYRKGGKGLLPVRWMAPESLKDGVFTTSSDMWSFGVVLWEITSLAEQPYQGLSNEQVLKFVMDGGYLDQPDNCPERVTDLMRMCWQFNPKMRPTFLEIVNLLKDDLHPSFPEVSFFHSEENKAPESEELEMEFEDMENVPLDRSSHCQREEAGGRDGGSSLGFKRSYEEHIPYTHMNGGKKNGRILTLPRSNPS

| Structure (SMILES) | InsR[IC50]/Itk[IC50] (InsR) | Btk[IC50]/Itk[IC50] (Btk) | IC50 (Itk) [nM] | Lck[IC50]/Itk[IC50] (Lck) | IC50 [1] [nM] |
| --- | --- | --- | --- | --- | --- |
| Cc1c(C(=O)Nc2ccc(-c3nc(-c4cccc(N5CCOCC5)n4)cnc3N)cc2)c(=O)n(-c2ccccc2)n1C [Example 7(6), N-(4-{3-amino-6-[6-(4-morpholinyl)-2-pyridinyl]-2-pyrazinyl}phenyl)-1,5-dimethyl-3-oxo-2-phenyl-2,3-dihydro-1H-pyrazole-4-carboxamide] | 100 | >200 | 2 | 85 | – |
| COC1CN(c2cccc(-c3cnc(N)c(-c4ccc(NC(=O)c5c(C)n(C)n(-c6cccc(Cl)c6)c5=O)cc4)n3)n2)C1 [Example 14(12), N-(4-{3-amino-6-[6-(3-methoxy-1-azetidinyl)-2-pyridinyl]-2-pyrazinyl}phenyl)-2-(3-chlorophenyl)-1,5-dimethyl-3-oxo-2,3-dihydro-1H-pyrazole-4-carboxamide] | 1400 | >500 | 2 | 185 | – |
| COC1CCN(c2cccc(-c3cnc(N)c(-c4ccc(NC(=O)c5c(C)n(C)n(-c6cccc(C)c6)c5=O)cc4)n3)n2)CC1 [Example 17(11), N-(4-{3-amino-6-[6-(4-methoxy-1-piperidinyl)-2-pyridinyl]-2-pyrazinyl}phenyl)-1,5-dimethyl-2-(3-methylphenyl)-3-oxo-2,3-dihydro-1H-pyrazole-4-carboxamide] | >300 | >1000 | 1 | >300 | – |
| Cc1c(C(=O)Nc2ccc(-c3nc(-c4ccnc(N5CCOCC5)c4)cnc3N)nc2)c(=O)n(-c2cccc(Cl)c2)n1C [Example 29(2), N-(6-{3-amino-6-[2-(4-morpholinyl)-4-pyridinyl]-2-pyrazinyl}-3-pyridinyl)-2-(3-chlorophenyl)-1,5-dimethyl-3-oxo-2,3-dihydro-1H-pyrazole-4-carboxamide] | >1000 | >1000 | 1 | >360 | 350 |
| COc1cccc(-n2c(=O)c(C(=O)Nc3ccc(-c4nc(-c5ccnc(N6CC(OC)C6)c5)cnc4N)nc3)c(C)n2C)c1 [Example 29(33), N-(6-{3-amino-6-[2-(3-methoxy-1-azetidinyl)-4-pyridinyl]-2-pyrazinyl}-3-pyridinyl)-2-(3-methoxyphenyl)-1,5-dimethyl-3-oxo-2,3-dihydro-1H-pyrazole-4-carboxamide] | – | – | 4 | – | – |
